Data taken from EP3679952A1, “NANOEMULSIONS ENCAPSULATING PRODRUGS” (Université de Strasbourg, priority 2019, dated 2020).

What was measured:
4T1 = assay: MTS cytotoxicity assay in cell culture; type: cell-based, mouse; conditions: 4T1 cells, 48h incubation, prodrugs loaded in nanoemulsion, free drugs without nanoemulsion
Experimental: (§1) The MTS assay is based on the reduction of the MTS tetrazolium compound by viable mammalian cells (here, by tumor cells) to generate a colored formazan dye that is soluble in cell culture media. The formazan dye is quantified by measuring the absorbance at 490-500 nm. […] After 24h, the medium was removed and replaced by drug-containing (LipoHD-DOX nanoemulsion or DOX alone) medium. After 48h, the medium was removed and replaced with MTS-containing medium (0,5 mg/ml). After 4h of incubation, the medium was removed, replaced with 100µl of DMSO (agitation, 20 min) and the absorbance was read at 570 nm.

MDA-MB-231 = assay: MTS cytotoxicity assay in cell culture; type: cell-based, Human; conditions: MDA-MB-231 cells, 48h incubation, prodrugs loaded in nanoemulsion, free drugs without nanoemulsion
Experimental: as §1

Jimt1 = assay: MTS cytotoxicity assay in cell culture; type: cell-based, Human; conditions: Jimt1 cells, 48h incubation, prodrugs loaded in nanoemulsion, free drugs without nanoemulsion
Experimental: as §1

[1] = DOX encapsulation in nanoemulsions with or without Lipo-HD, absorption spectra after dialysis (Example 1); type: physicochemical; conditions: for loading: after dialysis; for retention inside nanoemulsions after dialysis: dialysis in 0.1M NaHCO3 for 12h
Experimental: The compound Lipo-HD was dissolved firstly into the oil Labrafac® at 10 wt%. Then 65 mg of surfactant Solutol was added to 35 mg of above solution. The mixture was homogenized under magnetic stirring at 90°C for 10 min up to complete homogenisation. Finally, nanoemulsions were generated with the addition of ultrapure (Milli-Q) water (230 mg). The size of nanoemulsions could be monitored by the variation of the ratio between oil (labrafac) and surfactant (solutol). For fluorescence studies, 0.5 wt% of a donor dye […] is added respectively to Labrafac® containing or not 10 wt% of Lipo-HD. Then the nanoemulsions were prepared as described above. […] was used for monitoring the encapsulation, release and stability of the nanoemulsion by looking on the intensity variation between […] and DOX. […] To those solutions, […] of DOX-HCl (30 mM) was added. The mixtures were vortexes for 12 h at 37 °C. The Scheme of synthesis is illustrated in figure 1. The resulting solutions were dialyzed in 500 mL of 0.1M NaHCO3 for 12h. Absorption spectra were recorded on a Cary® spectrophotometer (Varian) according to conventional measurement method.

[2] = Storage stability of nanoemulsions (absorption spectra, precipitation) after 4 days; type: physicochemical; conditions: for change of absorption spectra on storage: nanoemulsions of the compound reacted with DOX, after 4 days storage at 4°C
Experimental: • Figure 1: Scheme of synthesis of DOX/Lipo-HD conjugate in situ inside lipid nanoemulsions. • Figure 2A: Absorption spectra of 100 timed diluted nanoemulsions containing reference dye F888 and with Lipo-HD alone (F888-Lipo-HD), of 100 timed diluted nanoemulsions with Lipo-HD after incubation with DOX (F888-Lipo-HD-DOX), and of nanoemulsions encapsulating F888-Lipo-HD-DOX and further dialysis (F888-Lipo-HD-DOX after dialysis). Reference dye F888 was encapsulated at 0.5 wt% of with respect to Labrafac oil. Lipo-HD was encapsulated at 10 wt%. • Figure 2B: Absorption spectra of 100 timed diluted nanoemulsions containing F888 but without Lipo-HD (F888), of 100 times diluted nanoemulsions containing F888 after incubation with DOX (F888-DOX), and of nanoemulsion encapsulating F888-DOX further dialysis (F888-DOX after dialysis). […] Reference dye F888 was encapsulated at 0.5 wt%. • Figure 4A: Fluorescence spectra of nanoemulsions encapsulating 0.5 wt% of donor dye F888 with 10 wt% of Lipo-HD (F888-Lipo-HD) or without Lipo-HD (F888). • Figure 4B: Fluorescence spectra of nanoemulsions with Lipo-HD incubated with DOX and then dialyzed (F888-Lipo-HD-DOX), of nanoemulsions without Lipo-HD incubated with DOX and then dialyzed (F888-DOX), and of nanoemulsions containing F888 alone (F888). […] All fluorescence spectra were corrected from the blank. • Figures 5A, 5B: Fluorescence spectra of F888-Lipo-HD-DOX nanoemulsions (5000-fold dilution) in the presence of blank nanoemulsions (50-fold dilution) at pH 7.4 (Fig. 5A) and 4.0 (Fig. 5B). […] All fluorescence spectra were corrected from the blank. • Figures 5C: Fluorescence intensity ratio donor/acceptor as a function of incubation time for pH 7.4 and 4.0 (Fig. 5C). • Figure 6A, 6B: Absorption spectra of four nanoemulsions containing respectively a compound of formula I'a, where R1 and R2 are butyl (C4)-alkyl chains, or octyl (C8)-alkyl chains, or octadecyl (C18)-alkyl chains, or R1 is a single C18 alkyl-chain, while R2 = H (C18 mono chain). […]

[3] = Doxorubicin loading of nanoemulsions containing compounds of formula II'a (Example 2); type: physicochemical; conditions: nanoemulsion with the compound at 5 wt% in Labrafac, Cremophore, reacted with doxorubicin at pH 4, 37°C, 24h, then dialysed 24h and centrifuged
Experimental: (§2) Corresponding compounds of formula II'a were respectively dissolved first into the oil Labrafac® at 5 wt%. Then 45 mg of surfactant Cremophore ® was added to 55 mg of above solution. The mixture was homogenized under magnetic stirring at 40°C for 10 min up to complete homogenisation. Finally, nanoemulsions were generated with the addition of phosphate buffered saline (230 mg).
300 µl of the obtained nanoemulsion encapsulating the compound of formula II'a were diluted into 300 µl of 20 mM acetate buffer (pH=4), and then 50 µl of 30 mM solution of doxorubicin in DMSO was added. The mixture was reacted under shaking at 37°C during 24h.
After the reaction, the sample was dialysed for 24h at NaHCO3 buffer (0.1 M) at pH8 and then centrifugation at 6000 rpm for 1 minute was carried out.

[4] = Size distribution of nanoemulsions by dynamic light scattering; type: physicochemical; conditions: nanoemulsion with the compound at 5 wt% in Labrafac, Cremophore, reacted with doxorubicin (Example 2)
Experimental: The compound Lipo-HD was dissolved firstly into the oil Labrafac® at 10 wt%. Then 65 mg of surfactant Solutol was added to 35 mg of above solution. The mixture was homogenized under magnetic stirring at 90°C for 10 min up to complete homogenisation. Finally, nanoemulsions were generated with the addition of ultrapure (Milli-Q) water (230 mg). The size of nanoemulsions could be monitored by the variation of the ratio between oil (labrafac) and surfactant (solutol).
Size distributions were determined by dynamic light scattering using Zetasizer Nano ZSP (Malvern Instruments S.A).
as §2

SMILES	Cytotoxicity (4T1)	Cytotoxicity (MDA-MB-231)	Cytotoxicity (Jimt1)	loading ([1]; DOX loading of nanoemulsion without Lipo-HD)	retention inside nanoemulsions after dialysis [1]	change of absorption spectra on storage [2]	Encapsulation loading (%) [3]	loading efficiency (%) [3]	PDI [4]	Size (nm) [4]	loading ([1]; DOX loading with respect to labrafac oil, nanoemulsion with 10 wt% Lipo-HD, calculated with extinction coefficient of DOX 12 200 M^-1cm^-1)	precipitation of nanoemulsion ([2]; nanoemulsion of the compound reacted with DOX, 4 days after preparation)	solubility in oil ([1]; conjugate formed in situ in nanoemulsion, compared with DOX alone)
COc1cccc2c1C(=O)c1c(O)c3c(c(O)c1C2=O)C[C@@](O)(C(=O)CO)C[C@@H]3O[C@H]1C[C@H](N)[C@H](O)[C@H](C)O1 [DOX, doxorubicin, reference compound]	dose-dependent cytotoxicity	dose-dependent cytotoxicity	dose-dependent cytotoxicity	< 0.06%	leaked out	–	–	–	–	–	–	–	–
CCCCCCCCCCCCCCCCCCN(CCCCCCCCCCCCCCCCCC)C(=O)CCC(=O)NN [Lipo-HD, 3-(hydrazinecarbonyl)-N,N-dioctadecylpropanamide]	–	–	–	–	–	minimal changes	1.58%	55%	0.118	99nm	1.6 wt%	–	–
CCCCCCCCCCCCCCCCCCNC(=O)CCC(=O)NN [Lipo-HD-C18]	–	–	–	–	–	strong loss of absorbance	0.68%	21%	0.132	104nm	–	signs of precipitation	–
CCCCCCCCCCCCCCCCCCN(CCCCCCCCCCCCCCCCCC)C(=O)CCC(=O)NN=C(CO)C1(O)Cc2c(O)c3c(c(O)c2C(OC2CC(N)C(O)C(C)O2)C1)C(=O)c1c(OC)cccc1C3=O (stereo not shown) [Lipo-HD-DOX]	similarly	higher toxicity	higher toxicity	–	remain inside nanoemulsions after dialysis	–	–	–	–	–	–	–	much better soluble in oil than DOX alone
CCCCCCCCCCCCCCCCCCN(CCCCCCCCCCCCCCCCCC)C(=O)CCC(=O)Nc1ccn([C@@H]2O[C@H](CO)[C@@H](O)C2(F)F)c(=O)n1 [Lipo-N-Gem]	dose-dependent	slightly more efficient	slightly more efficient	–	–	–	–	–	–	–	–	–	–
CC(=O)O[C@H]1C(=O)[C@@]2(C)[C@H]([C@H](OC(=O)c3ccccc3)[C@]3(O)C[C@H](OC(=O)[C@H](O)[C@@H](NC(=O)c4ccccc4)c4ccccc4)C(C)=C1C3(C)C)[C@]1(OC(C)=O)CO[C@@H]1C[C@@H]2O [paclitacel, paclitaxel, reference compound]	slightly higher	slightly higher	slightly higher	–	–	–	–	–	–	–	–	–	–
